In data set [1] the test system is deacetylase. The settings on record: cited from earlier work.
The procedure of data set [2]: Drug Formulation. […] This solution was administered to mice in place of drinking water and replaced weekly.
Animals. Affected mice were hemizygous R6/2 females (Mangiarini, L., et al. (1996) Cell 87: 493-506) (available from the Induced Mutant Resource, Jackson Laboratory, Bar Harbor Me., code B6CBA-TgN (HDexon1)62), bred and reared in our colony by backcrossing R6/2 males to C57BL/6×CBA F1 females. Transgenic animals were identified prior to weaning by PCR of tail-tip DNA and CAG repeat size was determined (Mangiarini, L., et al. (1997) Nat Genet 15: 197-200). Control mice were wild-type female littermates. Mice were weaned into their treatment groups at 4 weeks of age. […] From age 12 weeks, all animals were additionally given mash consisting of powdered chow mixed with the drug solution as given in the drinking bottle. The mice were subject to a 12 hour light (08:00-20:00), 12 hour dark (20:00-08:00) cycle. Living conditions and baseline characteristics of study groupings were standardized as previously described (Hockly et al. submitted).
Assuming that a 20 g mouse drinks 3 ml/day, this corresponds to a dose of 1.33 g/l.
Drug administration commenced at 30 days of age after an initial testing week, which was used to assort the mice into well-matched treatment groups (FIG. 28a).

For data set [3], the system named is huntingtin aggregate load. Nature of the data set: Organotypic hippocampal slice culture assay of polyQ aggregation. Type of data set: cell-based, R6/2 mice. As to the method:
The present inventors established that HOP-[…]-CD has no effect on polyQ aggregation over a 5-log concentration range (data not shown) and therefore the HOP-[…]-CD concentration required to complex 250 μM was used as the vehicle. The medium was changed twice weekly and slices were fixed at weekly intervals from 2 weeks in culture. The huntingtin aggregate load was assessed by quantitative indirect immunofluorescence and results were analyzed using the general linear model ANOVA with false discovery rate correction (Hochberg, Y. & Benjamini, Y. (1990) Stat Med 9: 811-8).
We have developed this technique to bridge the gap between wholly in vitro aggregation assays and preclinical trials and allow us to quantify aggregate formation in a system in which aggregates form at the same rate and in the same sequence as they do in vivo.

Data set [4] has as its system R6/2 mice. Nature of the data set: Rotarod analysis of motor impairment. It counts as in vivo. As to the method:
(§1) Animals. […] Control mice were wild-type female littermates.
(§2) Behavioral analysis: Rotarod impairment was assessed on a Ugo Basile 7650 accelerating Rotarod (Linton Instrumentation, UK), modified as previously described (Hockly et al, submitted). Animals (R6/2: n=13, wild-type: n=12 per treatment group) were tested at 4 weeks of age to establish their baseline performance and then at 8, 10 and 12 weeks of age. Grip strength was measured once per fortnight (Hockly et al. submitted) and animals weighed weekly to the nearest 0.1 g. Statistical analysis of grip strength used ANOVA on the mean grip strength. Rotarod data were analyzed at each time point using repeated measures in a linear mixed effects model (in S-plus).

The nature of data set [5]: Body weight in SAHA preclinical trial. Type of data set: in vivo, mice. How it is done: as §1, §2
The subject of data set [6] is flies expressing Q48. Nature of the data set: Pseudopupil analysis of rhabdomeres in flies expressing Q48 polyglutamine peptides. To be noted: for progressive photoreceptor neuron degeneration: feeding initiated only in adult flies; for distribution of rhabdomeres by day 6: Q48 flies fed inhibitor, data not shown; for neurodegenerative effect of Q48 (photographs of ommatidia): in vivo. Type of data set: in vivo, Drosophila. The source says:
(§3) Drosophila stocks and crosses. Expression of polyglutamine-containing peptides is driven by the bipartite expression system activator sequence (UAS)-GAL4 in transgenic flies (Marsh, J. L. et al. (2000) Hum. Mol. Gen. 9, 13-25).
(§4) Injection of plasmids expressing Httex1p with 20 or 93 glutamines produced nine and ten lines, respectively. Two lines with the most severe neuronal phenotype (P463 and P465) were chosen for the experiments described herein. Polyglutamine stocks are w;P(w^+mC=UAS-Q93httexon1)^4F1 and w;P(w^+mC=UAS-Q48+myc/flag)^20. Constructs under the control of a yeast UAS were crossed to flies expressing the yeast GAL4 transcriptional activator (Brand, A. and Perrimon, N., supra) driven by the neuron-specific promoter elav (chromosome 2 driver for Q48 lines, Luo, L. et al. (1994) Genes Dev. 8, 1787-1802, and X-chromosome driver for Htt exon 1 lines, Lin, D. M. & Goodman, C. S. (1994) Neuron 13, 507-523) that is expressed in all neurons from embryogenesis onwards: w;P(w^+mC;w+; elav-GAL4)/CyO, P(w^+mC=Act-GFP)JMR1CyO actin-GFP or w;P(w^+mW.hs=GawB)elavC155.
For testing the effect of Sin3A on polyglutamine phenotypes, we crossed w;P(w^+mC=UAS-Q93httexon1)^4F1 virgins to w;P{w^+mCwPw;elav-GAL4)/Y;Sin3A^08269/Bc Gla males.
Pseudopupil analysis and transgene expression. Pseudopupil analysis allows visualization of the arrangement of rhabdomeres in the ommatidia of the compound eye (Franceschini, N. (1972) in Information processing in the visual systems of arthropods, ed. Wehner, R., pp 75-82). Adult flies were decapitated, one eye was dipped in a drop of nail polish and the head was mounted on a microscope slide. Eyes were analyzed with a Nikon EFD-3/Optiphot-2 scope using a 50× objective, and photographed with a Spot camera. At least 200 ommatidia were scored for each condition. For Western analysis of transgene expression, 20 larvae from each sample were ground in a buffer containing 0.1 M phosphate at pH7.1, 0.3 M sucrose, 0.02 mM phenylthiourea, protease cocktail and 0.1 mM PMSF, and 200 μg of total lysate were loaded per lane.

In data set [7] the test system is PC12 cells induced to express Httex1p (103QP). Nature of the data set: Histone acetylation analysis in PC12 cell extract (Western blot). It counts as cell-based. To be noted: PC12 F103QP-EGFP cells, uninduced and induced, 5 mM sodium butyrate for last 24 h. How it is done: Histone acetylation analysis in PC12 cell extract. PC12 cells, stably transfected with ecdysone-inducible (Invitrogen) F103QP-EGFP were plated, induced with 5 μM ponasterone (Invitrogen) for 48 h, and treated for the last 24 h with 5 mM sodium butyrate. Controls included uninduced and/or non-butyrate-treated cells. Cells were lysed in 1×HAT buffer with 50 mM NaCl, 0.3% NP-40, and a protease-inhibitor cocktail on ice for 10 min. A 50 μg aliquot of whole cell extract was analyzed by Western blot.
Separate, independently-derived, ecdysone-inducible PC12 cell lines, denoted PC12/pBWN:Htt ex1Q103-EGFP cells and PC12/pWN:Httex1Q25-EGFP (E. S. Schweitzer, UCLA), were also analyzed. These clonal cells contain a modified exon 1 of Htt inserted into an expression vector containing the Bombyx ecdysone-regulated element (described in Suhr, S. T., et al. (1998) Proc. Natl. Acad. Sci. U.S.A. 95, 7999-8004).
Twenty-five micrograms of whole cell extracts from PC12 cells stably transfected with plasmids encoding inducible 25QP-EGFP and 103QP-EGFP was analyzed for […]. Control cells (uninduced) and cells induced with 1 μM tebufenizide for 12 h were analyzed by Western blots. Anti-acetylated histone H4, anti-histone H3 and anti-acetylated histone H3 (all from Upstate Biotechnology) were used to determine levels of acetylated histones H3 and H4 relative to levels of total H3.

The test system of data set [8] is flies expressing Httex1p Q93. Nature of the data set: Pseudopupil analysis of rhabdomeres in flies expressing Httex1p Q93. It counts as in vivo, Drosophila.
Excerpt: as §3
as §4, with “w;P(w^+mW.hs=GawB)elavC155. […]” for “w;P(w^+mW.hs=GawB)elavC155.”
Pseudopupil analysis and transgene expression. […] Eyes were analyzed with a Nikon EFD-3/Optiphot-2 scope using a 50× objective, and photographed with a Spot camera. At least 200 ommatidia were scored for each condition. […]

“Also recorded” adds a separate entry of the source. Like-named read-outs stand apart in the source and are kept apart here.

On to `O=C(CCCCCCC(=O)Nc1ccccc1)NO` [SAHA, Suberoylanilide hydroxamic acid], for which the effective concentration in data set [1] is roughly 2.5 µM. In addition, the “deaths before termination of the experiments at 13 weeks” value in data set [2] (0.67 g/l, R6/2 and wild-type) is reported as “no R6/2 mice or wild-type mice died”. For the same molecule, the OUTCOME result in data set [2] (1.33 g/1, WT and R6/2, oral, 3 weeks) was “no adverse symptoms”; in data set [2] (DE to 2 g/1, R6/2, oral, 1 week), “weight loss and one mouse (out of 4) died within one week”; in data set [2] (DE to 2.67 g/1+, WT, oral, 3 weeks), “dramatic weight loss”. Further, the “mice that died at around 6 weeks of age” value in data set [2] (1.33 g/l from 30 days of age, R6/2) is 2/13; in data set [2] (1.33 g/l from 30 days of age, wild-type), 2/12. In data set [2] (1.33 g/l from 30 days of age, after 2 weeks, wild-type and R6/2, data not shown), the “weight less than mice on the corresponding placebo” value is on record as “more than 20%”. Besides, in data set [2] (administration initiated at 30 days, doses […]1.33 g/l, wild-type and R6/2), the toxicity entry is on record as “toxic”. For the same molecule, the “aggregate load versus vehicle control” value in data set [3] (0.025 μM, 0.25 μM or 2.5 μM SAHA in HOP-[…]-CD, 3 and 4 weeks) is given as “no difference; also recorded: no effect”. Besides, in data set [3] (25 μM and 250 μM), the “toxicity to slice cultures” value is listed as “toxic”. The “Rotarod performance / motor impairment versus placebo” value in data set [4] (R6/2, 0.67 g/l SAHA in HOP-[…]-CD in drinking water) is “strong and consistent improvement; also recorded: dramatically improves Rotarod performance; also recorded: highly significant improvement; also recorded: dramatically improve the motor impairment”. In addition, the “Rotarod latency to fall” value in data set [4] (R6/2, 0.67 g/l SAHA, 8 weeks of age) amounted to 207 s; in data set [4] (R6/2, 0.67 g/l SAHA, 10 weeks of age), 187 s; in data set [4] (R6/2, 0.67 g/l SAHA, 12 weeks of age) it was 144 s. Besides, the “delay in the decline in Rotarod performance” value in data set [4] (R6/2, 0.67 g/l SAHA, 12 weeks versus placebo at 8 weeks) is “delay by as much as one month”. For the same molecule, in data set [4] (wild-type mice, 0.67 g/l SAHA), the “Rotarod performance versus placebo” value is given as “no significant difference”. Also, the “failure of R6/2 mice to gain weight” value in data set [5] (R6/2, 0.67 g/l SAHA) was “did not prevent; also recorded: did not ameliorate”. Further, the “weight deficit compared to appropriate placebo group” value in data set [5] (both wild-type and R6/2, 13 weeks, 0.67 g/l SAHA) is roughly 18%. Also, the “weight gain compared to littermates on placebo” value in data set [5] (wild-type and R6/2, 0.67 g/l SAHA) is reported as “failed to gain weight to the same extent; also recorded: failing to gain weight at the same rate as placebo-treated mice”. For the same molecule, in data set [6] (2 μM SAHA), the “progressive photoreceptor neuron degeneration” value is listed as “still prevented; also recorded: arrested”. For the same molecule, the “distribution of rhabdomeres by day 6” value in data set [6] is “same distribution of rhadomeres by day 6 as 1-day-old flies”. For the same molecule, the “neurodegenerative effect of Q48 (photographs of ommatidia)” value in data set [6] was “disrupts the neurodegenerative effect of Q48”.

Take `O=C(/C=C/c1cccc(C(=O)NO)c1)NO` [m-carboxy cinnamic acid bis-hydroxamic acid]: the “Effective Inhibitory Concentration Range” value in data set [1] was “nM-μM”.

Regarding `O=C(O)CCCc1ccccc1` [phenylbutyrate, Phenylbutyrate], in data set [1], the “Effective Inhibitory Concentration Range” value is “mM”.

With `O=C(CCCCCCC(=O)Nc1cccnc1)NO` [pyroxamide], in data set [1], the “Effective Inhibitory Concentration Range” value is recorded as “nM-μM”.

Consider `O=C(CCCCCN1C(=O)c2cccc3cccc(c23)C1=O)NO` [scriptaid, Scriptaid], for which, in data set [1], the “Effective Inhibitory Concentration Range” value was “nM-μM”.

With Oxamflatin, the “Effective Inhibitory Concentration Range” value in data set [1] is “μM”.

Regarding `CCCC(=O)O` [butyrate, Butyric acid], the “levels of histone H4 acetylation” value in data set [7] was “can be reversed by butyrate treatment”; in data set [7] (listed as sodium butyrate) it was “increased”. The “Effective Inhibitory Concentration Range” value in data set [1] is “mM”. Further, the “progressive photoreceptor neuron degeneration” value in data set [6] (100 mM butyrate) was “still prevented; also recorded: arrested”. The “distribution of rhabdomeres by day 6” value in data set [6] is “same distribution of rhadomeres by day 6 as 1-day-old flies”. In data set [6], the “neurodegenerative effect of Q48 (photographs of ommatidia)” value is listed as “disrupts the neurodegenerative effect of Q48”. Further, the “number of rhabdomeres per ommatidium at 6 days after eclosion” value in data set [8] (flies fed 100 mM butyrate) is “markedly improved”. Also, in data set [8] (larvae reared on inhibitor-containing food), the “level of degeneration (loss of rhabdomeres)” value is given as “reduces the level of degeneration observed”.

Take `C=C[C@@H](O)[C@@H]1O[C@H]1/C=C/[C@@H]1O[C@H]1[C@@H](C)O` [depudecin, Depudecin]: the “Effective Inhibitory Concentration Range” value in data set [1] was “μM”.

Consider `C/C=C1\NC(=O)[C@H]2CSSCC/C=C/[C@H](CC(=O)N[C@H](C(C)C)C(=O)N2)OC(=O)[C@H](C(C)C)NC1=O` [depsipeptide, Depsipeptide], for which the “Effective Inhibitory Concentration Range” value in data set [1] is “nM-μM”.

For the molecule `O=C(CCCCCCC(=O)NO)NO` [suberic bis-hydroxamic acid], the “Effective Inhibitory Concentration Range” value in data set [1] was “nM-μM”.

For `Nc1ccccc1NC(=O)c1ccc(CNC(=O)OCc2cccnc2)cc1` [benzamide (MS-27-275), MS-275], the “Effective Inhibitory Concentration Range” value in data set [1] is “μM”.

For `CN(C)c1ccc(C(=O)NCCCCCCCC(=O)NO)cc1` [DBCH, dimethylaminobenzamidylcaprylic hydroxamate], the “Effective Inhibitory Concentration Range” value in data set [1] is “nM-μM”.
